Results as given in US20240376126A1, “PRMT5 INHIBITOR AND THE USE THEREOF” (CYTOSINLAB THERAPEUTICS CO., LTD., priority 2022, published 2024).

Tests used:
PRMT5 MTA = PRMT5 MTA (Homo sapiens (Human), UniProt O14744); assay: PRMT5 inhibitory activity assay in vitro, enzyme solution with MTA ([3H]-SAM Flashplate); format: biochemical; conditions: MTA 2.0 um; read-out: Enzyme activity inhibition rate PRMT5 MTA (2.0 um) IC50 (nm)
Source text: Biological Test Example 1 PRMT5 Inhibitory Activity Assay In Vitro
PRMT5 (Active Motiv, catalog number 31921), [^3H]—SAM (Perkin Elmer, catalog number NET155V001MC), SAM (Sigma, catalog number A7007), MTA (Sigma, catalog number D5011), SAH (Sigma, catalog number A9384), 384-well plate (Perkin Elmer, catalog number 6007299), Echo 550 (manufacturer: Labcyte, model: Echo 550), 384-well Flashplate (manufacturer: Perkin Elmer, model: SMP410A001PK)
• (1) 1× Assay buffer (modified Tris buffer) was configured. • (2) Dilute compound: the compound was dissolved in 100% DMSO and the compound solution was added to a 384-well plate using Echo 550. • (3) Configure enzyme solution: PRMT5 was added to 1× assay buffer to prepare enzyme solution 1; PRMT5 and MTA was added to 1× assay buffer to prepare enzyme solution 2. • (4) Configure substrate solution: peptide segments and [3H]—SAM was added to 1× assay buffer. • (5) 15 μL of enzyme solution was added to the 384-well plate, and 15 μL of 1× assay buffer was added to the negative control well, and incubated at room temperature for 30 minutes. • (6) 15 μL of substrate solution was added to each well, and incubated at room temperature for 90 minutes. • (7) Configure termination reaction solution: pre-cooled SAM was added to 1× assay buffer. • (8) 10 μL of termination reaction solution was added to each well to terminate the reaction. • (9) 25 μL/well of the mixed solution was transferred to Flashplate and incubated for 1 hour at room temperature. • (10) the Flashplate three was washed times with dH2O+0.1% Tween-20 solution. • (11) the radiometric values was readed with Microbeta.
• (1) The raw data were converted to % inhibition according to Equation 1.
%inhibition=(Max−Signal)/(Max−Min)*100 Equation 1: • (2) the % inhibition data were entered into XL-Fit Equation 2 to obtain IC50 value:
Y=Bottom+(Top−Bottom)/(1+(IC50/X)[…]) Equation 2: • wherein, Y is the % inhibition, and X is the concentration of the compound.

HCT116 MTAP WT cells = assay: Proliferation inhibition of HCT116 cells in vitro (CellTiter Glo, 6 days); format: cell-based; conditions: Homo sapiens, HCT-116, 144 h, read-out: Cell proliferation inhibition rate HCT116 MTAP WT IC50 (nm)
[1] = tested on: HCT116-MTAP-KO (MTAP null) cells; assay: Proliferation inhibition of HCT116 MTAP-KO cells in vitro (CellTiter Glo, 6 days); format: cell-based; conditions: 144 h, read-out: Cell proliferation inhibition rate HCT116-MTAP null IC50 (nm)

PRMT5 MTA, sequence (O14744 whole entry, looked up): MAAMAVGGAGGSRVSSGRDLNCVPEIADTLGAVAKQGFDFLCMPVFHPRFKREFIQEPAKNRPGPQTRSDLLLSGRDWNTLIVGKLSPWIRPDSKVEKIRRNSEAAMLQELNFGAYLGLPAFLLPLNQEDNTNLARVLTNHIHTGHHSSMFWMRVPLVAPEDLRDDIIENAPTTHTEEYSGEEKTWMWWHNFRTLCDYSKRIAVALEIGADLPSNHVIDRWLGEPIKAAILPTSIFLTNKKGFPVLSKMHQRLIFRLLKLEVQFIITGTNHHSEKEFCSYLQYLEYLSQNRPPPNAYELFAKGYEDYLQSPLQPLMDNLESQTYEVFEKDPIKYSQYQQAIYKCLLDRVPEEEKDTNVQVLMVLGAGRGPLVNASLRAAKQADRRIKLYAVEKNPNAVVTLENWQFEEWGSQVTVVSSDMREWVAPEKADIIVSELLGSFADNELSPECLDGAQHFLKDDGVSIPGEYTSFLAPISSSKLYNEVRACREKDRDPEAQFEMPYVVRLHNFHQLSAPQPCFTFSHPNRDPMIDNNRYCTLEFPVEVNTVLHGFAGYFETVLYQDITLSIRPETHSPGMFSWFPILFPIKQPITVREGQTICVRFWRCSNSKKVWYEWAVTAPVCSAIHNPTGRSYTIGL
PRMT5 MTA, sequence (Q9BQA1 whole entry partner, looked up): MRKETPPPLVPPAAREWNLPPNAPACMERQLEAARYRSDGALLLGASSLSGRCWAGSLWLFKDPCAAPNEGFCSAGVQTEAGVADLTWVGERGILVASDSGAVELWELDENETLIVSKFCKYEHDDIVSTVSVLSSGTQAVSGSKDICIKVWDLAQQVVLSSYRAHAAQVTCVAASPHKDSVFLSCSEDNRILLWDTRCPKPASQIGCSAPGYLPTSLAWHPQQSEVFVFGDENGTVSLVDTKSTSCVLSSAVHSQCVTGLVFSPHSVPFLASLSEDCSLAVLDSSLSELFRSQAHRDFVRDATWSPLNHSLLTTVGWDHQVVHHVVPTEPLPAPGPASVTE

Compound | IC50 (PRMT5 MTA) | IC50 (HCT116 MTAP WT cells) | IC50 [1]
CC(c1ncccn1)N(Cc1cn2ccccc2n1)C(=O)c1ccc2nc(N)c3c(c2c1)CCC3 (stereo not shown) [Example 1, 4-Amino-N-(pyrazolo[1,5-a]pyridin-2-ylmethyl)-N-(1-(pyrimidin-2-yl)ethyl)-2,3-dihydro-1H-cyclopentadieno[c]quinolin-8-carboxamide] | 0.0051 µM | 1 to 10 µM | < 0.1 µM
CCN(Cc1cn2ccccc2n1)C(=O)c1cc2c(cc1F)nc(N)c1cnn(C)c12 [Example 2] | 0.003 µM | 1 to 10 µM | < 0.1 µM
CC(C)CN(Cc1cn2cc(C(F)(F)F)ccc2n1)C(=O)c1ccc2nc(N)c3cnn(C)c3c2c1 [Example 4] | 0.0017 µM | 1 to 10 µM | < 0.1 µM
COCC(C1CC1)N(Cc1nc2ccccc2[nH]1)C(=O)c1ccc2nc(N)c(C)cc2c1 (stereo not shown) [Example 127] | 0.0037 µM | 1 to 10 µM | < 0.1 µM
CC(C)CN(Cc1nc2ccc(C(F)(F)F)cc2[nH]1)C(=O)c1ccc2nc(N)c3cnn(C)c3c2c1 [Example 132] | 0.0044 µM | 1 to 10 µM | < 0.1 µM
COCC(C1CC1)N(Cc1nc2ccccc2s1)C(=O)c1ccc2nc(N)c3c(c2c1)CCC3 (stereo not shown) [Example 147] | 0.0029 µM | 1 to 10 µM | 0.1 to 1 µM
Cc1cc2cc(C(=O)N(Cc3nc4ccccc4s3)C34CC(C3)C4)ccc2nc1N [Example 148] | 0.0026 µM |  | 
